What was measured:
Assay in all cases: relative viability (nuclei count vs DMSO), 5 days (fraction); higher = more cells survive
AZD6482 + Decitabine = compound: Cc1cc([C@@H](C)Nc2ccccc2C(=O)O)c2nc(N3CCOCC3)cc(=O)n2c1 [AZD6482] + Nc1ncn([C@H]2C[C@H](O)[C@@H](CO)O2)c(=O)n1 [Decitabine] (partner 2 µM)
In short: (§1)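 The day after seeding in 1536-well plates, lung cancer cell lines were treated by pin tool with a single drug, or with a fixed anchor-drug dose together with five library-drug doses (not always all listed) in √10 steps. After 5 days, a combined fix-and-stain solution (final 0.05% Triton X-100, 1% formaldehyde, 1 ug/ml Hoechst) was added. Nuclei counted on 4× images gave relative viability as treated counts over vehicle counts, reported as the median of duplicate plates.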

AZD6482 + Vorinostat = compound: Cc1cc([C@@H](C)Nc2ccccc2C(=O)O)c2nc(N3CCOCC3)cc(=O)n2c1 [AZD6482] + O=C(CCCCCCC(=O)Nc1ccccc1)NO [Vorinostat] (partner 1 µM)
In short: as §1

[1] = compound: COc1cc2nc(N3CCCN(C)CC3)nc(NC3CCN(Cc4ccccc4)CC3)c2cc1OC + O=C(CCCCCCC(=O)Nc1ccccc1)NO [Vorinostat] (partner 1 µM)
In short: as §1

AZD6482 + Dasatinib = compound: Cc1cc([C@@H](C)Nc2ccccc2C(=O)O)c2nc(N3CCOCC3)cc(=O)n2c1 [AZD6482] + Cc1nc(Nc2ncc(C(=O)Nc3c(C)cccc3Cl)s2)cc(N2CCN(CCO)CC2)n1 [Dasatinib] (partner 0.075 µM)
In short: as §1

Cell Line	relative viability (AZD6482 + Decitabine; first compound 0.08 µM)	relative viability (AZD6482 + Decitabine; first compound 0.253 µM)	relative viability (AZD6482 + Decitabine; first compound 0.8 µM)	relative viability (AZD6482 + Decitabine; first compound 2.53 µM)	relative viability (AZD6482 + Decitabine; first compound 8 µM)	relative viability (AZD6482 + Vorinostat; first compound 0.08 µM)	relative viability (AZD6482 + Vorinostat; first compound 0.253 µM)	relative viability (AZD6482 + Vorinostat; first compound 0.8 µM)	relative viability (AZD6482 + Vorinostat; first compound 2.53 µM)	relative viability (AZD6482 + Vorinostat; first compound 8 µM)	relative viability ([1]; first compound 0.2 µM)	relative viability ([1]; first compound 0.6325 µM)	relative viability ([1]; first compound 2 µM)	relative viability ([1]; first compound 6.325 µM)	relative viability (AZD6482 + Dasatinib; first compound 0.08 µM)	relative viability (AZD6482 + Dasatinib; first compound 0.253 µM)	relative viability (AZD6482 + Dasatinib; first compound 0.8 µM)	relative viability (AZD6482 + Dasatinib; first compound 2.53 µM)	relative viability (AZD6482 + Dasatinib; first compound 8 µM)
NCI-H2342	0.636	0.643	0.736	0.568	0.587	0.733	0.683	0.71	0.518	0.48	0.638	0.729	0.792	0.757	0.301	0.292	0.34	0.277	0.31
NCI-H1915	0.278	0.255	0.263	0.247	0.23	0.432	0.467	0.538	0.4	0.462	0.506	0.426	0.514	0.472	0.298	0.289	0.329	0.286	0.296
NCI-H2405	0.641	0.666	0.732	0.447	0.541	0.762	0.9	1.03	0.644	0.501	1.01	0.989	1.02	0.976	0.161	–	0.232	0.206	0.191
NCI-H322M	0.657	0.617	0.674	0.537	0.603	0.846	0.818	0.812	0.473	0.565	0.838	0.939	0.855	0.868	0.261	0.249	0.27	0.207	0.242
NCI-H2170	0.427	0.443	0.432	0.423	0.442	0.742	0.695	0.767	0.677	0.578	0.858	0.765	0.86	0.755	0.482	0.424	0.585	0.544	0.486
NCI-H522	0.627	0.6	0.586	0.585	0.755	0.818	0.896	0.805	0.829	0.759	0.803	0.884	0.879	0.676	0.832	0.783	0.879	0.974	0.747
NCI-H1395	0.584	0.601	0.636	0.496	0.489	0.584	0.402	0.559	0.385	0.47	0.617	1.24	0.896	0.491	0.348	0.346	0.357	0.29	0.369
NCI-H358	0.246	0.218	0.237	0.185	0.189	0.494	0.648	0.672	0.347	0.56	0.746	0.663	0.754	0.462	0.151	0.186	0.132	0.0881	0.153
NCI-H838	0.436	0.442	0.433	0.428	0.364	0.631	0.701	0.664	0.54	0.538	0.772	0.695	0.938	0.626	0.24	0.248	0.257	0.218	0.28

— the supplement of paper PMC10307832
